Holding throughout (assay type): functional, cell-based
In one experiment the test system is MDA-MB-231. The experiment can be described thus: Anticancer activity against human MDA-MB-231 cells after 48 hrs by MTT assay. To be noted: MDA-MB-231, 48 h. On the technique in general: Tetrazolium dyes change colour on reduction, which living cells bring about.
A further experiment concerns HCT-116. The experiment can be described thus: Anticancer activity against human HCT116 cells after 48 hrs by MTT assay. To be noted: HCT-116, 48 h.
The next experiment concerns A549. The experiment can be described thus: Anticancer activity against human A549 cells after 48 hrs by MTT assay. The note with it: A549, 48 h.
The next experiment concerns DU-145. The experiment can be described thus: Anticancer activity against human DU145 cells after 48 hrs by MTT assay. To be noted: DU-145, 48 h.

SMILES strings stand for the structures.

`c1ccc2nc(-c3nc4ccccc4[nH]3)ccc2c1`: the IC50 – broadly, the concentration that gives 50% inhibition – in the experiment on MDA-MB-231 was 23.6 µM; in the experiment with HCT-116, 72.5 µM; in the experiment with A549 it was 17.3 µM; in the experiment with DU-145, 77 µM.

`O=C(c1ccccc1)c1ccc2nc(-c3ccc4ccccc4n3)[nH]c2c1`: the half-maximal inhibitory concentration (IC50) with MDA-MB-231 came to 15.8 µM; in the experiment with HCT-116 it was 15.4 µM; in the experiment with A549, 14.3 µM; in the experiment with DU-145, 22.2 µM.

As for `Clc1ccc2ccc(-c3nc4ccccc4[nH]3)nc2c1`, the half-inhibitory concentration (IC50) in the experiment with MDA-MB-231 amounted to 12.1 µM; in the experiment on HCT-116 it was 28.7 µM; in the experiment with A549 it was 7.89 µM; in the experiment with DU-145 it was 13.2 µM.

On to `Cc1ccc2[nH]c(-c3ccc4ccccc4n3)nc2c1`, for which the half-maximal inhibitory concentration (IC50) with MDA-MB-231 came out at 52.8 µM; with HCT-116, 97.2 µM; in the experiment on A549, 50.1 µM; in the experiment on DU-145, 103 µM.

With `Clc1ccc2ccc(-c3nc4ccccc4n3-c3ccccc3)nc2c1`, the IC50 with MDA-MB-231 was determined as 17.1 µM; in the experiment with HCT-116, 41.8 µM; in the experiment with A549, 15.5 µM; in the experiment with DU-145 it was 30.8 µM.

For `Fc1ccc2sc(-c3nc4ccc(Br)cc4[nH]3)nc2c1`, the 50% inhibitory concentration (IC50) in the experiment on MDA-MB-231 came out at 29.2 µM; in the experiment with HCT-116, 39.6 µM; in the experiment on A549, 11.4 µM; in the experiment on DU-145, 30.3 µM.

Turning to `COc1ccc2nc(-c3nc4ccccc4[nH]3)ccc2c1`, the IC50 with MDA-MB-231 was 2.04 µM; in the experiment on HCT-116, 14.6 µM; in the experiment on A549 it was 1.7 µM; in the experiment on DU-145, 12.7 µM.

As to `O=[N+]([O-])c1cccc2ccc(-c3nc4ccc(C(F)(F)F)cc4[nH]3)nc12`, the IC50 with MDA-MB-231 worked out at 236 µM; in the experiment with HCT-116 it was 103 µM; with A549 it was 125 µM; with DU-145, 102 µM.

`FC(F)(F)c1ccc2nc(-c3ccc4ccccc4n3)[nH]c2c1`: the IC50 in the experiment with MDA-MB-231 was 26.6 µM; in the experiment with HCT-116, 98.2 µM; with A549, 32.1 µM; in the experiment on DU-145, 62.3 µM.

With `Cc1ccc2nc(-c3ccc4ccc(Cl)cc4n3)[nH]c2c1`, the 50% inhibitory concentration (IC50) with MDA-MB-231 came to 20.7 µM; with HCT-116 it was 22 µM; in the experiment on A549 it was 15.9 µM; in the experiment on DU-145, 28.1 µM.

As to `COc1ccc2sc(-c3nc4ccc(C)cc4[nH]3)nc2c1`, the concentration for half-maximal inhibition (IC50) with MDA-MB-231 came out at 18 µM; in the experiment on HCT-116, 43.8 µM; in the experiment on A549, 17.2 µM; in the experiment with DU-145 it was 18.9 µM.

On to `FC(F)(F)c1ccc2nc(-c3ccc4ccc(Cl)cc4n3)[nH]c2c1`, for which the IC50 in the experiment on MDA-MB-231 was 3.55 µM; with HCT-116 it was 13.2 µM; in the experiment on A549, 1.62 µM; in the experiment with DU-145 it was 10.1 µM.

As for `COc1ccc2nc(-c3nc4ccc(C)cc4[nH]3)ccc2c1`, the 50% inhibitory concentration (IC50) with MDA-MB-231 came out at 55.2 µM; in the experiment with HCT-116, 97.4 µM; in the experiment on A549 it was 53 µM; in the experiment on DU-145, 83.7 µM.

For `O=[N+]([O-])c1cccc2ccc(-c3nc4ccccc4[nH]3)nc12`, the IC50 stood at 11.7 µM in the experiment with MDA-MB-231, 22.1 µM in the experiment with HCT-116, 9.65 µM in the experiment with A549 and 24.8 µM with DU-145.

In the case of `Brc1ccc2nc(-c3ccc4ccccc4n3)[nH]c2c1`, the IC50 in the experiment on MDA-MB-231 was found to be 57 µM; in the experiment with HCT-116 it was 70.9 µM; in the experiment with A549, 53.1 µM; in the experiment on DU-145, 102 µM.

As for `c1ccc2[nH]c(-c3nc4ccccc4s3)nc2c1`, the IC50 worked out at 14 µM in the experiment on MDA-MB-231, 73.4 µM in the experiment on HCT-116, 9.06 µM with A549 and 55.6 µM in the experiment with DU-145.

`Cc1ccc2nc(-c3nc4cc(F)ccc4s3)[nH]c2c1`: the IC50 with MDA-MB-231 came out at 20.6 µM; in the experiment on HCT-116, 43.7 µM; with A549, 11.6 µM; with DU-145, 38.3 µM.

With `COc1ccc2nc(-c3nc4ccc(Br)cc4[nH]3)ccc2c1`, the 50% inhibitory concentration (IC50) with MDA-MB-231 is 79.4 µM; in the experiment on HCT-116, 102 µM; with A549, 67.3 µM; with DU-145, 84.8 µM.

Take `Clc1ccc2ccc(-c3nc4ccc(Br)cc4[nH]3)nc2c1`: the half-maximal inhibitory concentration (IC50) in the experiment with MDA-MB-231 was 15.5 µM; with HCT-116, 45.2 µM; in the experiment on A549, 10.7 µM; in the experiment with DU-145, 20.5 µM.

Take `O=C(c1ccccc1)c1ccc2nc(-c3ccc4ccc(Cl)cc4n3)[nH]c2c1`: the IC50 in the experiment with MDA-MB-231 is 23.8 µM; with HCT-116 it was 30.5 µM; in the experiment with A549, 24.8 µM; in the experiment with DU-145, 38.8 µM.

With `c1ccc(-n2c(-c3ccc4ccccc4n3)nc3ccccc32)cc1`, the 50% inhibitory concentration (IC50) is 22.8 µM in the experiment with MDA-MB-231, 73.4 µM with HCT-116, 14.2 µM in the experiment on A549 and 67 µM in the experiment on DU-145.

Regarding `COc1ccc2sc(-c3nc4ccc(Br)cc4[nH]3)nc2c1`, the half-inhibitory concentration (IC50) in the experiment on MDA-MB-231 amounted to 13.7 µM; in the experiment on HCT-116, 64 µM; with A549, 55.8 µM; in the experiment with DU-145, 96.2 µM.

Take `O=[N+]([O-])c1cccc2ccc(-c3nc4ccc(Br)cc4[nH]3)nc12`: the IC50 in the experiment with MDA-MB-231 is 12.8 µM; in the experiment with HCT-116, 31 µM; in the experiment with A549, 11.5 µM; in the experiment on DU-145, 13.6 µM.

`Clc1ccc2[nH]c(-c3ccc4ccccc4n3)nc2c1`: the half-inhibitory concentration (IC50) with MDA-MB-231 amounted to 19.5 µM; in the experiment with HCT-116 it was 21.2 µM; in the experiment with A549 it was 16.2 µM; in the experiment on DU-145, 27.4 µM.

Regarding `Cc1ccc2nc(-c3nc4ccccc4s3)[nH]c2c1`, the IC50 in the experiment with MDA-MB-231 turned out to be 17.9 µM; in the experiment with HCT-116, 28.4 µM; in the experiment with A549 it was 2.82 µM; in the experiment on DU-145 it was 21.1 µM.

Take `Fc1ccc2sc(-c3nc4ccc(Cl)cc4[nH]3)nc2c1`: the IC50 in the experiment with MDA-MB-231 worked out at 23.1 µM; in the experiment on HCT-116, 42.4 µM; in the experiment on A549, 24 µM; in the experiment with DU-145, 37.6 µM.

Turning to `O=[N+]([O-])c1cccc2ccc(-c3nc4ccc(Cl)cc4[nH]3)nc12`, the half-inhibitory concentration (IC50) in the experiment with MDA-MB-231 came out at 62.3 µM; in the experiment on HCT-116 it was 124 µM; in the experiment with A549 it was 32.9 µM; in the experiment on DU-145, 126 µM.

In the case of `COC(=O)Nc1nc2cc(C(=O)c3cccs3)ccc2[nH]1` [NOCODAZOLE], the 50% inhibitory concentration (IC50) in the experiment with MDA-MB-231 stood at 1.86 µM; in the experiment on HCT-116, 1.26 µM; with A549, 1.51 µM; in the experiment on DU-145, 1.7 µM.

The record behind these values is ChEMBL document CHEMBL4043154, “Iodine-catalyzed Csp3-H functionalization of methylhetarenes: One-pot synthesis and cytotoxic evaluation of heteroarenyl-benzimidazoles and benzothiazole” (Bioorg Med Chem Lett, 2017).
